Experiment [1] deals with retinoic acid-induced NF-κB activity. Briefly: NF-κB reporter in HEK293-NF-κB-luc cells treated with all-trans-retinoic acid. The format is cell-based. The note with it: 16 μM retinoic acid; CID-2858522 4 μM, IKK inhibitor 10 μM. On the procedure:
(§1) FIGS. 3 (A-F) HEK293-NF-κB-luc cells were pretreated with CID-2858522 (4 μM), IKK inhibitor, BMS-335541 (10 μM), or PKC inhibitor, Bisindolylmaleimide I (1 μM) for 2 hrs and then transfected with plasmids encoding CD4/TLR4 (A), CD40 (B), NOD1 (C), NOD2 (D), cIAP2-MALT1 (E), or XIAP and TAB (F), or pcDNA as control (compounds were not removed). After 48 hrs, luciferase activity was measured expressing data as fold increase relative to unstimulated cells (mean±SD; n=3). (G-H) HEK293-NF-κB-luc cells were pretreated with CID-2858522 (4 μM), or IKK inhibitor, BMS-335541 (10 μM) for 2 hrs and then cultured with 2 μM doxorubicin (G) or 16 μM retinoic acid (H). After 48 hrs, luciferase activity was measured as above.
(§2) Counter Screening and Secondary Assays. To counter-screen for inhibitors of the TNF pathway, HEK293-NFκB-Luc cells were seeded at 10^5 cells per well in 90 μL medium in white 96-well plates (Greiner Bio-One) and cultured overnight, before adding compounds (5 μL in medium) to cells. […] Luciferase activity was measured using Britelite kit (Perkin Elmer). […] Cells were cultured in medium containing CID-2858522 or other compounds and luciferase activity was measured 48 h later. […] Reactions were then initiated by addition of 50 μL 160 nM ATP (Sigma) in PBS and luciferase activity was measured 2 h later using a luminometer (LJL Biosystems, Sunnyvale, Calif.).

Experiment [2] deals with NOD1 (NLRC1) induced NF-κB-luciferase reporter gene activity. Briefly: NF-κB reporter in HEK293-NF-κB-luc cells over-expressing NOD1. The format is cell-based. The following applies: CID-2858522 4 μM, IKK inhibitor 10 μM. On the procedure:
as §1, §2

The subject of experiment [3] is NOD2 (NLRC2) induced NF-κB-luciferase reporter gene activity. Briefly: NF-κB reporter in HEK293-NF-κB-luc cells over-expressing NOD2. Type of experiment: cell-based. The following applies: CID-2858522 4 μM, IKK inhibitor 10 μM. On the procedure:
as §1, §2

The subject of a further experiment is TRAF1 induction. Briefly: TRAF1 expression in anti-IgM-stimulated CLL B-cells (immunoblot). The format is cell-based, human. The note with it: 24 hr after stimulation. On the procedure: (A) Isolated mouse primary splenocytes were cultured with anti-CD3/anti-CD28 (0.3 μg/mL each) or anti-IgM (3 μg/mL) for 48 h, then 1 μCi 3H-Thymidine was added for 12 h and incorporation into DNA was measured, expressing data as fold increase above unstimulated cells (mean±SD; n=3). (B-D) Primary splenocytes were pretreated for 2 h with IKK inhibitor, BMS-335541 (B), PKC inhibitor, Bisindolylmaleimide I (C) or CID-2858522 (D), then stimulated with anti-CD3/anti-CD28 (0.3 μg/mL) or anti-IgM (3 μg/mL) for 48 h. 1 μCi 3H-Thymidine was added for 12 h and incorporation into DNA was measured, expressing data as percent inhibition relative to control cells treated with DMSO (mean±SD; n=3). […] Levels of TRAF1 and β-actin were assessed by immunoblotting, quantified by densitometry and TRAF1 results reported relative to control cells, after normalization for β-actin (mean±SD). […] Then nuclear extracts were prepared and p65-DNA-binding activity was measured (mean±SD; n=3).
Chronic Lymphocytic Leukemia (CLL) cell culture. Peripheral blood mononuclear cells from CLL patients were obtained under IRB approval from whole blood by Ficoll density gradient centrifugation and cultured with RPMI 1640 Medium supplemented with 10% FBS and antibiotics.
(A western blot detects proteins with antibodies after separation by electrophoresis.)

Another experiment has as its system c-FLIP processing. The experiment in a line: PMA/Ionomycin-induced c-FLIP processing in HEK293 cells (immunoblot). The format is cell-based. The following applies: CID-2858522 4 μM, PKC inhibitor 1 μM. On the procedure: FIG. 7. CID-285852 inhibits IKKβ phosphorylation induced by PKC activators. (A) HEK293 cells were cultured in 0.5% FBS medium for 24 h and then treated with CID-2858522 (4 μM) or PKC inhibitor, Bisindolylmaleimide I (1 μM) for 2 hrs followed by PMA/Ionomycin (10 ng/mL; 5 ng/mL) for 2 h. Cell lysates were subjected to immunoprecipitation using anti-CARMA1 antibody and analyzed by immunoblotting with anti-phospho-CARMA1 antibody or anti-CARMA1 antibody. (B-E) HEK293 cells were transfected with plasmids encoding myc-CARMA1 in combination with plasmids encoding various other proteins including Caspase-8 (cys287ala) (B), HA-IKK-γ (C), HA-TAK1 (D), and TRAF6 (E). […] Cell lysates were immunoprecipated using anti-myc antibody and analyzed by immunoblotting using anti-Caspase8 (B), anti-HA (C,D), or anti-TRAF6 (E) antibodies. […] Cell lysates were normalized for protein content and analyzed by immunoblotting using anti-FLIP and anti-alpha-tubulin antibodies. […] Cell lysates were immunoprecipitated using anti-IKK-β and analyzed by immunoblotting using anti-phospho-IKK-β antibody or anti-IKK-β antibody (as loading control). […]
Caspase-8 plays an essential role in antigen receptor-mediated NF-κB activation. […] We then assessed the effects of CID-2858522 on PMA-induced proteolytic processing of c-FLIP, a Caspase-8-mediated event recently shown to be required for antigen receptor mediated NF-κB activation.

Entries after “also recorded” stand apart in the source; their conditions may differ.

The results in this text go back to US20090247520A1, “INHIBITORS OF ANTIGEN RECEPTOR-INDUCED NF-kappa B ACTIVATION” (The Burnham Institute for Medical Research, priority 2008, published 2009).

In the case of `Cc1ccc2nc(NCCN)c3ncc(C)n3c2c1` [BMS-345541, reference compound], the “suppression of retinoic acid-induced NF-κB activity” value in experiment [1] is given as “significantly suppressed”. For the same compound, the “inhibition of NOD1-induced NF-κB reporter” value in experiment [2] is “inhibited”. For the same compound, the “inhibition of NOD2-induced NF-κB reporter” value in experiment [3] is listed as “inhibited”.
With `CN(C)CCCn1cc(C2=C(c3c[nH]c4ccccc34)C(=O)NC2=O)c2ccccc21` [Bisindolylmaleimide I, reference compound], the “inhibition of anti-IgM-stimulated TRAF1 expression” value in the experiment with TRAF1 induction was “also inhibited”. In the experiment with c-FLIP processing, the “inhibition of c-FLIP processing” value is “completely inhibited”.
On to `Cc1cc2nc(NCCCO)n(CC(=O)c3cc(C(C)(C)C)c(O)c(C(C)(C)C)c3)c2cc1C` [Compound 1, 2-(2-(3-Hydroxypropylamino)-5,6-dimethyl-1H-benzo[d]imidazol-1-yl)-1-(3,5-di-tert-butyl-4-hydroxyphenyl)ethanone], for which, in experiment [1], the “suppression of retinoic acid-induced NF-κB activity” value was “did not inhibit”. Moreover, the “inhibition of anti-IgM-stimulated TRAF1 expression” value with TRAF1 induction was “inhibited”. In addition, the “inhibition of NOD1-induced NF-κB reporter” value in experiment [2] is “did not inhibit; also recorded: not by CID-2858522”. The “inhibition of c-FLIP processing” value in the experiment on c-FLIP processing is reported as “not affected”. For the same compound, the “inhibition of NOD2-induced NF-κB reporter” value in experiment [3] is given as “did not inhibit”.
